From patent US5215971A, “Antiviral pharmaceutical composition comprising 5-substituted pyrimidine nucleosides” (priority 1986, dated 1993)
Where two headings read alike, the source gives them in different places.

Assays:
[1] = biological target: Duck hepatitis virus polymerase (Duck hepatitis B virus, UniProt P03162); assay: Inhibition of duck hepatitis B virus polymerase (reverse transcriptase) using DNA and RNA templates; type: biochemical; conditions: compounds used as 5'-triphosphates
Text: (§1) There is no cell culture assay which can be used to determine the efficiacy of compounds against hepatitis B virus. However, the hepatitis B virus encodes a reverse transcriptase, Summer and Mason, Cell 29 (1982) 403-415, obligatory for hepatitis b virus replication. This enzyme, which is also a consituent of the hepatitis B virus particles, can be used to evaluate the inhibitory activity against hepatitis B virus of nucleoside analogues provided that these compounds are used as their metabolic products, 5'-triphosphates. […] The hepatitis B virus reverse transcriptase can, as all reverse transcriptases, use both RNA and DNA templates, and included in Table 2 is also the inhibition of duck hepatitis B virus polymerase using both DNA and RNA templates.
(§2) The assays were performed as described in Tao et al. Hepatitis B virus was for a long time considered to be a DNA virus with a viral DNA polymerase being part of the virus particles. However, it was discovered that the hepatitis B virus DNA polymerase activity was due to a reverse transcriptase and that this virus should be regarded as a retrovirus which, in contrast to other retroviruses, uses its DNA phase as genetic material in the virus particles. Summers and Mason. Hepatitis B viruses are therefore not related to DNA viruses such as herpes-viruses or adeno-virus, but rather are related to retroviruses such as HIV.

[2] = biological target: Hepatitis B virus polymerase (Hepatitis B virus genotype D subtype ayw, UniProt P03156); assay: Inhibition of hepatitis B virus polymerase (reverse transcriptase) using a DNA template; type: biochemical; conditions: compounds used as 5'-triphosphates
Text: as §1, §2

[3] = monkeys, Tao et al., cited from earlier work; for absorption: oral; for Elimination half-lives: range given for both compounds together
[4] = system: HIV (HTLV-IIIB) in H9 cells; assay: Inhibition of human immunodeficiency virus multiplication in cell culture (HIV infection of H9 cells); type: cell-based; conditions: Human immunodeficiency virus 1, 6-7 days, HIV antigen containing cells by immunofluorescence, read-out: Concentration for 50% inhibition (IC50) of human immunodeficiency virus multiplication in cell culture
Method: H9 cells, 10^5 cells per well on a 24 well plate, suspended in 2 ml RPMI-medium containing 10% fetal calf serum, 100 μg/ml penicillin, 10 μg/ml streptomycin sulfate and 2 μg/ml polybrene are exposed to HIV (HTLV-IIIB) and different concentrations of the inhibiting compounds. The plates are incubated at 37° C. in 5% CO2 for 6-7 days. The contents in each well is then homogenized with a pipette and transferred to a centrifuge tube. After centrifugation for 10 min at 1500 rpm the supernatent is removed and the cell pellet is analyzed by fixing in methanol on glass plates. Human HIV positive serum diluted 1:80 or 1:160 is added and incubated for 30 min at 37°. The plate is then washed with phosphate-buffered saline (PBS) containing Ca^2+ and Mg^2+. Sheep antihuman conjugate (FITC) is added and after a new incubation the plate is again washed with PBS. Contrast staining is done with Evans blue and after drying the frequency of HIV antigen containing cells is determined in a microscope.

[5] = DNA template, read-out: IC50, duck hepatitis virus polymerase, DNA template
[6] = RNA template, read-out: IC50, duck hepatitis virus polymerase, RNA template

Sequence of Duck hepatitis virus polymerase (P03162 whole entry): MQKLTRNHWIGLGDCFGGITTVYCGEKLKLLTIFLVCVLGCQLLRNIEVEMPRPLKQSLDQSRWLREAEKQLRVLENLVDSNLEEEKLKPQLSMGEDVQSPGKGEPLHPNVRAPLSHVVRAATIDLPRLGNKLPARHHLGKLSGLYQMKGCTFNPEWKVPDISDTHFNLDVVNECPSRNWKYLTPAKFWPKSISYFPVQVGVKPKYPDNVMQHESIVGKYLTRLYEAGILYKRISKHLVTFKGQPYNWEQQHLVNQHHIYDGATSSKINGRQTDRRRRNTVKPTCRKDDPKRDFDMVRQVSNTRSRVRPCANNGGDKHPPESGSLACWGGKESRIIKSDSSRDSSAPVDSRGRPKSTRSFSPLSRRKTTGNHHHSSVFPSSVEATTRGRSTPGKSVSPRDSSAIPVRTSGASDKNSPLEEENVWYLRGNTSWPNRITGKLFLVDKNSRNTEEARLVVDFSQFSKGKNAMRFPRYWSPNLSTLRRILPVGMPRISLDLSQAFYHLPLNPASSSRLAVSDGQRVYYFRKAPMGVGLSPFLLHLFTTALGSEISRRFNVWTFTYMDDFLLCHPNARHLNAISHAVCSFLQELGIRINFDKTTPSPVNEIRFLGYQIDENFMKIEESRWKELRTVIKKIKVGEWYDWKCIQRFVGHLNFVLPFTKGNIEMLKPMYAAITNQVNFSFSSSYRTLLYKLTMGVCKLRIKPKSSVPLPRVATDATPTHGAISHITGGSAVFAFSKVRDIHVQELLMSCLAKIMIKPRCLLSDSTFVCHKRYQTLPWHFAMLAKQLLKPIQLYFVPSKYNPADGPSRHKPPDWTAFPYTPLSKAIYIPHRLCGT
Sequence of Hepatitis B virus polymerase (P03156 whole entry): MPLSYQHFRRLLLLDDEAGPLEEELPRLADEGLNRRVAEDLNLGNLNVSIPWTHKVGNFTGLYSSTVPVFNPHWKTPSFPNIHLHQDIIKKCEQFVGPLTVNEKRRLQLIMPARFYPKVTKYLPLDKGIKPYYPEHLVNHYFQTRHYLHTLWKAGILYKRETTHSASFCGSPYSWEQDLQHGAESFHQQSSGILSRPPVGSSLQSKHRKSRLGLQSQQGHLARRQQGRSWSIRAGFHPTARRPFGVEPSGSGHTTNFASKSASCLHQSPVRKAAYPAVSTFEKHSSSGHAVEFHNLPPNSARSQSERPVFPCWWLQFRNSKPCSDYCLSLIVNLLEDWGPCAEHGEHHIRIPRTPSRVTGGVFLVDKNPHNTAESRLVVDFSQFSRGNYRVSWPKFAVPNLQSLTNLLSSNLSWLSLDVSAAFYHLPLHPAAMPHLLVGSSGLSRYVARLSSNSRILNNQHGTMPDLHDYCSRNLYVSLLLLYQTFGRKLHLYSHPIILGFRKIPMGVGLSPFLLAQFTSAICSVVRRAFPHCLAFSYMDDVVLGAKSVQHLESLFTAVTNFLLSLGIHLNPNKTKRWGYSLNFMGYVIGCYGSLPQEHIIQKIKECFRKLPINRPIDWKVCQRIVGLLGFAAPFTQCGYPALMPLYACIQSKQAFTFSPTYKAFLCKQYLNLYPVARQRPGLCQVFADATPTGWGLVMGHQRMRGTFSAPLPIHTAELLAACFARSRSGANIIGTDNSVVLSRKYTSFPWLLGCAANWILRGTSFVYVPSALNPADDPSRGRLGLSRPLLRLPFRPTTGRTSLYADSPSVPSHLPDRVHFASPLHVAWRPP

IC50 [1, 5] | IC50 [1, 6] | IC50 [2] | IC50 [4] | SMILES | absorption [3] | Elimination half-lives [3]
340 nM | 540 nM | 240 nM | < 1000 nM | CC=Cc1cn([C@@H]2O[C@H](CO)[C@@H](O)[C@@H]2O)c(=O)[nH]c1=O [1-(β-D-arabinofuranosyl)-5-(1-propenyl)-uracil] | moderately well absorbed | 1.2 to 1.8 h
– | – | – | 2000 nM | CCc1cn([C@@H]2O[C@H](CO)[C@@H](O)[C@@H]2O)c(=O)[nH]c1=O [1-(β-D-arabinofuranosyl)-5-ethyluracil] | – | –
– | – | – | 2000 nM | C=C(C)c1cn([C@@H]2O[C@H](CO)[C@@H](O)[C@@H]2O)c(=O)[nH]c1=O [1-(β-D-arabinofuranosyl)-5-isopropenyluracil] | – | –
– | – | – | 1000 to 10000 nM | C=C(C)c1cn([C@H]2C[C@H](O)[C@@H](CO)O2)c(=O)[nH]c1=O [5-(1-isopropenyl)-2'-deoxyuridine] | – | –
110 nM | 150 nM | 100 nM | < 1000 nM | CC=Cc1cn([C@H]2C[C@H](O)[C@@H](CO)O2)c(=O)[nH]c1=O [5-(1-propenyl)-2'-deoxyuridine] | moderately well absorbed | 1.2 to 1.8 h
900 nM | 740 nM | 250 nM | – | CCc1cn([C@H]2C[C@H](O)[C@@H](CO)O2)c(=O)[nH]c1=O [5-Ethyl-2'-deoxythymidine] | – | –
– | – | – | < 1000 nM | O=c1[nH]c(=O)n([C@H]2C[C@H](O)[C@@H](CO)O2)cc1C1CC1 [5-cyclopropyl-2'-deoxyuridine] | – | –
– | – | – | 1000 nM | CCc1cn([C@H]2C[C@H](O)[C@@H](CO)O2)c(=O)[nH]c1=O [5-ethyl-2'-deoxyuridine] | – | –
500 nM | 240 nM | 250 nM | < 1000 nM | O=c1[nH]c(=O)n([C@H]2C[C@H](O)[C@@H](CO)O2)cc1CO [5-hydroxymethyl-2'-deoxyuridine] | – | –
